# Measured values published in patent publication US20240376097A1, “BCL-2 Inhibitor” (BeiGene Ltd., priority 2020, published 2024).
# Key:
# [1] = target: Recombinant human Bcl-2 protein (Homo sapiens (Human), UniProt P10415); assay: Bcl-2 TR-FRET Assay; type: binding; settings: Bcl-2 wild type, TR-FRET; read-out: Biochemical assay (IC50, nM) Bcl-2 WT
# Summary of the method: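 Compounds were pre-incubated with 0.05 nM recombinant Bcl-2 for 0.5 h at room temperature in potassium phosphate buffer, pH 7.5. FITC-Bak peptide (0.5 nM) and Tb-cryptate antibody were then added for 1 h. Percent inhibition from TR-FRET signals gave IC50 values.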
# [2] = test system: BCL-2 G101V knock-in cell line H96 (derive from RS4;11); assay: Bcl 2-G101V Knock-In RS4;11 Cell Proliferation Assay; type: cell-based; settings: Homo sapiens, RS4;11 Bcl-2 G101V knock-in clone H96, 48 hrs, CellTiter-GLO, read-out: Cellular proliferation assay (IC50, nM) RS4
# Procedure: Biological Example: Bcl 2-G101V Knock-In RS4;11 Cell Proliferation Assay
# (1) RS4;11 H96 Bcl 2-G101V Knock-In Cell Line Generation
# Briefly, RS4;11 BCL2-G101V knock-in cell pool was generated using Crisper/Cas9 gene editing system and the BCL2-G101V knock-in single clone H96 was picked from the knock-in cell pool and validated by WES (whole exome-sequencing) and RNA-seq.
# The BCL-2 dependent acute lymphoblastic leukemia (ALL) cell line, RS4;11(ATCC, CRL-1873), was cultured in RPMI-1640 complete medium (RPMI-1640 medium, HEPES (Gibco, 22400-105) supplemented with 10% fetal bovine serum (FBS) (Gibco, 10099-1441), 100 unit/ml penicillin and 100 μg/ml streptomycin (Gibco, 15140122)) and maintained in a humidified chamber at 37° C. containing 5% CO2.
# To obtain BCL2-G101V knock-in cell pool, RS4;11 was co-transfected with the Cas9-gRNA which also expressed GFP label, and the Donor gene which contained the BCL2-G101V mutant sequence. After 48 hrs of electroporation, the GFP positive cells were collected through FACSAriaIII cell sorting system. Cell pool was recovered for 3 days and then cultured under 2 nM ABT-199 stress for 4 weeks. […] Then cells were plated in 96 well U-plate with 1 cell/well for 10000 wells for single clone selection. After 3-5 weeks growing, clones were successively screened by PCR sequencing. And three BCL2-G101V knock-in clones: H96, H142 and H233, have been picked out.
# Three clones were validated by genome DNA and cDNA(mRNA) PCR sequencing, and BCL-2, BCL-xL and MCL-1 expression using Western Blot. The H96 clone was also validated by WES (whole exome-sequencing) and RNA-seq.
# (2) Bcl 2-G101V Knock-In RS4;11 Cell Proliferation Assay
# The BCL-2 G101V knock-in cell line H96 (derive from RS4;11) were used to study the cellular potency of BCL-2 inhibitors. The cells were cultured in RPMI-1640 complete medium (RPMI-1640 medium, HEPES (Gibco, 22400-105) supplemented with 10% fetal bovine serum (FBS) (Gibco, 10099-1441), 100 unit/ml penicillin and 100 μg/ml streptomycin (Gibco, 15140122)) and maintained in a humidified chamber at 37° C. containing 5% CO2. Each compound was serially diluted with 1 μM or 10 μM as the maximum concentration. To test the apoptotic effect of the compounds, the cells were seeded at 50,000 in 90 μl per well in 96-well plates and treated with 10-point dilution series of each compound for 48 hrs at 37° C. Cell viability was assessed after the treatment using CellTiter-GLO luminescent assay (Promega) according to the manufacturer's recommendations. Briefly, 30 μl of CellTiter-GLO reagent was added into 100 μl of cell culture. Mixture was agitated on an orbital shaker for 5 min to ensure cell lysis followed by 7 min incubation at room temperature to allow development and stabilization of luminescent signals, which corresponded to the quantity of ATP and thus the quantity of metabolically active cells. Luminescent signals were measured using PHERAstar FS reader (BMG). Mean IC50 values were determined with GraphPad Prism software.
# [3] = test system: RS4;11 (BCL-2 dependent acute lymphoblastic leukemia cell line); assay: RS4;11 Cell Proliferation Assay; type: cell-based; settings: Homo sapiens, RS4-11, RS4;11 cells, read-out: Cellular proliferation assay (IC50, nM) RS4
# Summary of the method: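 RS4;11 cells, 50,000 per well in RPMI-1640 with 10% FBS, treated 48 h at 37 °C with a 10-point dilution series topping at 1 μM. Viability read by CellTiter-Glo ATP luminescence; mean IC50 reported.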
# [4] = target: recombinant human Bcl-2-G101V protein (Homo sapiens (Human), UniProt P10415, G101V); assay: Bcl-2-G101V TR-FRET Assay; type: binding; settings: Bcl-2 G101V mutant, TR-FRET; read-out: Biochemical assay (IC50, nM) Bcl-2 G101V
# Summary of the method: (§1)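 Ex337/em490 & 520 nm TR-FRET; % inhibition of Bcl-2-G101V–ligand interaction from 490:520 ratio vs. increasing compound conc.; IC50 by 4-parameter logistic fit.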
# [5] = test system: recombinant human Bcl-2-G101V protein; assay: Bcl-2-G101V TR-FRET Assay; type: binding; settings: ratio of biochemical IC50 Bcl-2 G101V / Bcl-2 WT
# Summary of the method: as §1
compound,measurement,setting,value
"CC(C)c1ccccc1C1CN(Cc2ccc3c(c2)OC(F)(F)O3)CCN1C1CC2(CCN(c3ccc(C(=O)NS(=O)(=O)c4ccc(NC[C@H]5CC[C@](C)(O)CC5)c([N+](=O)[O-])c4)c(Oc4cnc5[nH]ccc5c4)c3)CC2)C1 (stereo partly drawn) [Example 168, 2-((1H-pyrrolo[2,3-b]pyridin-5-yl)oxy)-4-(2-(4-((2,2-difluorobenzo[d] [1,3]dioxol-5-yl)methyl)-2-(2-isopropylphenyl)piperazin-1-yl)-7-azaspiro[3.5]nonan-7-yl)-N-((4-((((1r,4r)-4-hydroxy-4-methylcyclohexyl)methyl)amino)-3-nitrophenyl)sulfonyl)benzamide]",IC50,[1],0.79 nM
same,IC50,[2],1.68 nM
same,IC50,[3],0.48 nM
same,IC50,[4],4.6 nM
same,Ratio of Bcl-2 G101V/WT,[5],5.9
"CC(C)c1ccccc1[C@@H]1CN(Cc2ccc3c(c2)OCC3)CCN1C1CC2(C1)CN(c1ccc(C(=O)NS(=O)(=O)c3ccc(NC[C@H]4CC[C@](C)(O)CC4)c([N+](=O)[O-])c3)c(Oc3cnc4[nH]cc(F)c4c3)c1)C2 [Example 297, 4-(6-((R)-4-((2,3-dihydrobenzofuran-6-yl)methyl)-2-(2-isopropylphenyl)piperazin-1-yl)-2-azaspiro[3.3]heptan-2-yl)-2-((3-fluoro-1H-pyrrolo[2,3-b]pyridin-5-yl)oxy)-N-((4-((((1r,4r)-4-hydroxy-4-methylcyclohexyl)methyl)amino)-3-nitrophenyl)sulfonyl)benzamide]",IC50,[1],0.13 nM
same,IC50,[2],1.16 nM
same,IC50,[3],0.25 nM
same,IC50,[4],0.4 nM
same,Ratio of Bcl-2 G101V/WT,[5],3.0
"CC(C)c1ccccc1[C@@H]1CN(Cc2ccnc3c2OCC(C)(C)O3)CCN1C1CC2(C1)CN(c1ccc(C(=O)NS(=O)(=O)c3ccc(NC[C@H]4CC[C@](C)(O)CC4)c([N+](=O)[O-])c3)c(Oc3cnc4[nH]ccc4c3)c1)C2 [Example 316, 2-((1H-pyrrolo[2,3-b]pyridin-5-yl)oxy)-4-(6-((R)-4-((3,3-dimethyl-2,3-dihydro-[1,4]dioxino[2,3-b]pyridin-8-yl)methyl)-2-(2-isopropylphenyl)piperazin-1-yl)-2-azaspiro[3.3]heptan-2-yl)-N-((4-((((1r,4r)-4-hydroxy-4-methylcyclohexyl)methyl)amino)-3-nitrophenyl)sulfonyl)benzamide]",IC50,[1],0.022 nM
same,IC50,[2],0.53 nM
same,IC50,[3],0.16 nM
same,IC50,[4],0.1 nM
same,Ratio of Bcl-2 G101V/WT,[5],4.5
"CC(C)c1ccccc1C1CN(Cc2cccc3occc23)CCN1C1CC2(CCN(c3ccc(C(=O)NS(=O)(=O)c4ccc(NC[C@H]5CC[C@](C)(O)CC5)c([N+](=O)[O-])c4)c(Oc4cnc5[nH]ccc5c4)c3)CC2)C1 (stereo partly drawn) [Example 213, 2-((1H-pyrrolo[2,3-b]pyridin-5-yl)oxy)-4-(2-(4-(benzofuran-4-ylmethyl)-2-(2-isopropylphenyl)piperazin-1-yl)-7-azaspiro[3.5]nonan-7-yl)-N-((4-((((1r,4r)-4-hydroxy-4-methylcyclohexyl)methyl)amino)-3-nitrophenyl)sulfonyl)benzamide]",IC50,[1],0.7 nM
same,IC50,[2],5.2 nM
same,IC50,[3],0.32 nM
same,IC50,[4],2.6 nM
same,Ratio of Bcl-2 G101V/WT,[5],3.7
"COc1ccc(CN(C)C2CCN(C3CC4(CCN(c5ccc(C(=O)NS(=O)(=O)c6ccc(NC[C@H]7CC[C@](C)(O)CC7)c([N+](=O)[O-])c6)c(Oc6cnc7[nH]ccc7c6)c5)CC4)C3)C(c3ccccc3C3CC3)C2)cc1 (stereo partly drawn) [Example 105, 2-((1H-pyrrolo[2,3-b]pyridin-5-yl)oxy)-4-(2-(2-(2-cyclopropylphenyl)-4-((4-methoxybenzyl)(methyl)amino)piperidin-1-yl)-7-azaspiro[3.5]nonan-7-yl)-N-((4-((((1r,4r)-4-hydroxy-4-methylcyclohexyl)methyl)amino)-3-nitrophenyl)sulfonyl)benzamide]",IC50,[1],0.1 nM
same,IC50,[2],16.6 nM
same,IC50,[3],2.12 nM
same,IC50,[4],0.25 nM
same,Ratio of Bcl-2 G101V/WT,[5],2.5
COC12CC3CC(CC(CN4CCN(C5CC6(C5)CN(c5ccc(C(=O)NS(=O)(=O)c7ccc(NC[C@H]8CC[C@](C)(O)CC8)c([N+](=O)[O-])c7)c(Oc7cnc8[nH]cc(F)c8c7)c5)C6)[C@H](c5ccccc5C(C)C)C4)(C3)C1)C2 [Example 352],IC50,[1],0.52 nM
same,IC50,[2],4.56 nM
same,IC50,[3],0.45 nM
same,IC50,[4],2.2 nM
same,Ratio of Bcl-2 G101V/WT,[5],4.2
"CC(C)c1ccccc1[C@@H]1CN(C2CC2)CCN1C1CC2(CCN(c3ccc(C(=O)NS(=O)(=O)c4ccc(NC[C@H]5CC[C@](C)(O)CC5)c([N+](=O)[O-])c4)c(Oc4cnc5[nH]ccc5c4)c3)CC2)C1 (single isomer, unassigned) [Example 4, 2-((1H-pyrrolo[2,3-b]pyridin-5-yl)oxy)-4-(2-((R or S)-4-cyclopropyl-2-(2-isopropylphenyl)piperazin-1-yl)-7-azaspir[3.5]nonan-7-yl)-N-((4-((((1r,4r)-4-hydroxy-4-methylcyclohexyl)methyl)amino)-3-nitrophenyl)sulfonyl)benzamide]",IC50,[1],0.045 nM
same,IC50,[2],9.56 nM
same,IC50,[3],0.87 nM
same,IC50,[4],1.6 nM
same,Ratio of Bcl-2 G101V/WT,[5],35.6
"CC(C)c1ccccc1C1CN(Cc2ccc(C3CC3)cc2)CCN1C1CC2(CCN(c3ccc(C(=O)NS(=O)(=O)c4ccc(NC[C@H]5CC[C@](C)(O)CC5)c([N+](=O)[O-])c4)c(Oc4cnc5[nH]cc(F)c5c4)c3)CC2)C1 (stereo partly drawn) [Example 160, 4-(2-(4-(4-cyclopropylbenzyl)-2-(2-isopropylphenyl)piperazin-1-yl)-7-azaspiro[3.5]nonan-7-yl)-2-((3-fluoro-1H-pyrrolo[2,3-b]pyridin-5-yl)oxy)-N-((4-((((1r,4r)-4-hydroxy-4-methylcyclohexyl)methyl)amino)-3-nitrophenyl)sulfonyl) benzamide]",IC50,[1],1.2 nM
same,IC50,[2],2.87 nM
same,IC50,[3],0.564 nM
same,IC50,[4],6 nM
same,Ratio of Bcl-2 G101V/WT,[5],5
"CC(C)c1ccccc1C1CN(S(=O)(=O)c2ccccc2)CCN1C1CC2(CCN(c3ccc(C(=O)NS(=O)(=O)c4ccc(NC[C@H]5CC[C@](C)(O)CC5)c([N+](=O)[O-])c4)c(Oc4cnc5[nH]ccc5c4)c3)CC2)C1 (stereo partly drawn) [Example 62, 2-((1H-pyrrolo[2,3-b]pyridin-5-yl)oxy)-N-((4-((((1r,4r)-4-hydroxy-4-methylcyclohexyl)methyl)amino)-3-nitrophenyl)sulfonyl)-4-(2-(2-(2-isopropylphenyl)-1-(phenylsulfonyl)piperazin-1-yl)-7-azaspiro[3.5]nonan-7-yl) benzamide]",IC50,[1],0.33 nM
same,IC50,[2],28.4 nM
same,IC50,[3],2.4 nM
same,IC50,[4],13 nM
same,Ratio of Bcl-2 G101V/WT,[5],39.4
